The numbers were not newly measured in patent US20230017920A1, “SHELF-STABLE HYPOCHLOROUS ACID” (priority 2019, published 2023), which cites them from elsewhere.

Structures are written as SMILES.

The test system of this data set is individual bacterial cells. The conditions noted are these: various studies, H Park et al., Int J Food Microbiol 91 (2004) 13-18.

`OCl` [HOCl, hypochlorous acid]: the “time to kill individual bacterial cells” value is recorded as “within seconds”.
